ChEMBL document CHEMBL3991601, “The target landscape of clinical kinase drugs” (Science, 2017)
Activity calls are given as the source filed them. Rule as the data show it, for most assays here: actives have a measured Kd and inactives only a lower limit.

Legend:
Ephrin type-B receptor 4 = biological target: T1, Ephrin type-B receptor 4 (Homo sapiens, UniProt P54760)
T1 sequence (P54760 whole entry): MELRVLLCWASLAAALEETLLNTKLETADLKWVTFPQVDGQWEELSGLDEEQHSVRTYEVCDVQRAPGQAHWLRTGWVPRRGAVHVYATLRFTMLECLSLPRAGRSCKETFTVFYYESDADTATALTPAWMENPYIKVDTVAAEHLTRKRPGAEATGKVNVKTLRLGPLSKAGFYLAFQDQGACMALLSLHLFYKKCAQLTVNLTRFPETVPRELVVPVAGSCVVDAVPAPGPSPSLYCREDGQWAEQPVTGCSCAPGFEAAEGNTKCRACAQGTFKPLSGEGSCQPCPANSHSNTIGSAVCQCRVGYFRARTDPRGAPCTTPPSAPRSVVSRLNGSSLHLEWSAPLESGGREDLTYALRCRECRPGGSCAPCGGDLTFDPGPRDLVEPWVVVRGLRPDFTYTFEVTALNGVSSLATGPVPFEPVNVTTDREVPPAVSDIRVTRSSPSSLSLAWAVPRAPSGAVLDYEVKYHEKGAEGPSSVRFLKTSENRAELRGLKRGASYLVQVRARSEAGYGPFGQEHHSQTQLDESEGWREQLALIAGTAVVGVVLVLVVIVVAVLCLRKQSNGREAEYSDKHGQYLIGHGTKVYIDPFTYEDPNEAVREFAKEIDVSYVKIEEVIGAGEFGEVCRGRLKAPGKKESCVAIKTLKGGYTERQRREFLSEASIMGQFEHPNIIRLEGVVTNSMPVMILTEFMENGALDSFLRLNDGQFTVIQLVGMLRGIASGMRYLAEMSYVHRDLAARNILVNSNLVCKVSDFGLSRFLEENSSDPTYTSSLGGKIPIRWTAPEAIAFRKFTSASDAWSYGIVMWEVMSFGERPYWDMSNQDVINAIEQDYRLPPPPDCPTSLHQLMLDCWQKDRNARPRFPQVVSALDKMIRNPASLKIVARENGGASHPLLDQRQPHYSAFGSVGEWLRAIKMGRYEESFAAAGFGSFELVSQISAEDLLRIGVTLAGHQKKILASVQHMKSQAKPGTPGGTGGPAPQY

[1] = biological target: T2, Phenylalanine--tRNA ligase beta subunit (Homo sapiens, UniProt Q9NSD9)
T2 sequence (Q9NSD9 whole entry): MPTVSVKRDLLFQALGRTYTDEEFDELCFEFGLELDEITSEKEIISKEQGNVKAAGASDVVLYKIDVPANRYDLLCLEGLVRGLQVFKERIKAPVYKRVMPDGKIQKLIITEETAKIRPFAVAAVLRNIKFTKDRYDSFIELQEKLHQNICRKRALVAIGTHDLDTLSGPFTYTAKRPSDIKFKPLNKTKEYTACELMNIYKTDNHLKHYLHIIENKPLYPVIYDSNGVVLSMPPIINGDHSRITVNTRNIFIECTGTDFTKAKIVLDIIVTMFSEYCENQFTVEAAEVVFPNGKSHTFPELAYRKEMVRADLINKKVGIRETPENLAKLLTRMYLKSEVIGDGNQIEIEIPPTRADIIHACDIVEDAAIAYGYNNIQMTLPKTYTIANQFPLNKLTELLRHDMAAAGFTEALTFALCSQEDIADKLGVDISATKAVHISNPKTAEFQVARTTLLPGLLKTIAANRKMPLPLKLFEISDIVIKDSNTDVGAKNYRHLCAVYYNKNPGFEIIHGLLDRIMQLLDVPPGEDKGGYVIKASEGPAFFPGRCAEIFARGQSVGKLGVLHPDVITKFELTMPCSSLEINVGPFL

[2] = biological target: Tyrosine-protein kinase HCK (Homo sapiens, UniProt P08631)
[3] = biological target: Mitogen-activated protein kinase kinase kinase kinase 5 (Homo sapiens, UniProt Q9Y4K4)
[4] = biological target: Serine/threonine-protein kinase N2 (Homo sapiens, UniProt Q16513)
[5] = biological target: cAMP-dependent protein kinase catalytic subunit alpha (Homo sapiens, UniProt P17612)
[6] = biological target: GTP-binding nuclear protein Ran (Homo sapiens, UniProt P62826)
[7] = biological target: T3, Signal recognition particle receptor subunit alpha (Homo sapiens, UniProt P08240)
T3 sequence (P08240 whole entry): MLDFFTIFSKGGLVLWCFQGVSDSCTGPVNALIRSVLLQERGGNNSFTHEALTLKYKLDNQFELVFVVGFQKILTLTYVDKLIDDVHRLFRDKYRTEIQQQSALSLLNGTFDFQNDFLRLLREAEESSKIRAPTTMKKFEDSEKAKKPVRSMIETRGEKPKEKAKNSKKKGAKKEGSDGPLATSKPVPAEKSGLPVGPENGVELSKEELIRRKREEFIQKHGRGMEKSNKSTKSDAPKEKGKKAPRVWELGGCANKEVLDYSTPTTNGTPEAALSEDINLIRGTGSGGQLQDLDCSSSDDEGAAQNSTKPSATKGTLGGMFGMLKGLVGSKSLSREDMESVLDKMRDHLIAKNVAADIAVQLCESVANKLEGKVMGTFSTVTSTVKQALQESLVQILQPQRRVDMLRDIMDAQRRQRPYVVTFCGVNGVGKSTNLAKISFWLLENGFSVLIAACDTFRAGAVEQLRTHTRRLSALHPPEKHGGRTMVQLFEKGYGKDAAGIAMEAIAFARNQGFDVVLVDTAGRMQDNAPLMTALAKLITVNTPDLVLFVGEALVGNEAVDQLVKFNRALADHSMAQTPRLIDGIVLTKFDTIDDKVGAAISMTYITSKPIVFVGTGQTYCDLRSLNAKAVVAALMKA

[8] = biological target: Serine/threonine-protein kinase 10 (Homo sapiens, UniProt O94804)
[9] = biological target: Tyrosine-protein kinase SYK (Homo sapiens, UniProt P43405)
Also: in the data inactive means no Kd found up to 30 µM.

Mitogen-activated protein kinase kinase kinase kinase 5, sequence (Q9Y4K4 whole entry): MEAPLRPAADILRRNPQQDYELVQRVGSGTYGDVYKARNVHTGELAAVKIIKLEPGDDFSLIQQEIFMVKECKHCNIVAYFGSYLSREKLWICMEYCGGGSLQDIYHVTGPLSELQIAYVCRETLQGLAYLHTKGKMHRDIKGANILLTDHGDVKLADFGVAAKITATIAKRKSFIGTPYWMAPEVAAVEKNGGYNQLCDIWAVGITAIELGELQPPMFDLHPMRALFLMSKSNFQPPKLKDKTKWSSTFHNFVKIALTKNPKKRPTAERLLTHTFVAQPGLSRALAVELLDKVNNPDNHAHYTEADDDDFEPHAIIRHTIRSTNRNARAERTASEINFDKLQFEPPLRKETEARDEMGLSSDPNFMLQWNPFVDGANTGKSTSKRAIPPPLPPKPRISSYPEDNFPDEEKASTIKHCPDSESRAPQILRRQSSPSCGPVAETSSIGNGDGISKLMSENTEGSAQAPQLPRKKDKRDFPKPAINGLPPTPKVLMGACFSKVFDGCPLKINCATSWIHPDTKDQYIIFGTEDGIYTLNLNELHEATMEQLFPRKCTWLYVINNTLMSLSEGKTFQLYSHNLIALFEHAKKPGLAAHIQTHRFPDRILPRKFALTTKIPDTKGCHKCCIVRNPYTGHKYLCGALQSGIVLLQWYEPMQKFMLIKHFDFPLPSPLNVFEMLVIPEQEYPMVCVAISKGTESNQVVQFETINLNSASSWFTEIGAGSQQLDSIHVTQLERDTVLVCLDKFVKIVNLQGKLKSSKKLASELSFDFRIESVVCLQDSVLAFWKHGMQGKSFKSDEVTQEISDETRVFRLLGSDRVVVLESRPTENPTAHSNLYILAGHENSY
Serine/threonine-protein kinase 10, sequence (O94804 whole entry): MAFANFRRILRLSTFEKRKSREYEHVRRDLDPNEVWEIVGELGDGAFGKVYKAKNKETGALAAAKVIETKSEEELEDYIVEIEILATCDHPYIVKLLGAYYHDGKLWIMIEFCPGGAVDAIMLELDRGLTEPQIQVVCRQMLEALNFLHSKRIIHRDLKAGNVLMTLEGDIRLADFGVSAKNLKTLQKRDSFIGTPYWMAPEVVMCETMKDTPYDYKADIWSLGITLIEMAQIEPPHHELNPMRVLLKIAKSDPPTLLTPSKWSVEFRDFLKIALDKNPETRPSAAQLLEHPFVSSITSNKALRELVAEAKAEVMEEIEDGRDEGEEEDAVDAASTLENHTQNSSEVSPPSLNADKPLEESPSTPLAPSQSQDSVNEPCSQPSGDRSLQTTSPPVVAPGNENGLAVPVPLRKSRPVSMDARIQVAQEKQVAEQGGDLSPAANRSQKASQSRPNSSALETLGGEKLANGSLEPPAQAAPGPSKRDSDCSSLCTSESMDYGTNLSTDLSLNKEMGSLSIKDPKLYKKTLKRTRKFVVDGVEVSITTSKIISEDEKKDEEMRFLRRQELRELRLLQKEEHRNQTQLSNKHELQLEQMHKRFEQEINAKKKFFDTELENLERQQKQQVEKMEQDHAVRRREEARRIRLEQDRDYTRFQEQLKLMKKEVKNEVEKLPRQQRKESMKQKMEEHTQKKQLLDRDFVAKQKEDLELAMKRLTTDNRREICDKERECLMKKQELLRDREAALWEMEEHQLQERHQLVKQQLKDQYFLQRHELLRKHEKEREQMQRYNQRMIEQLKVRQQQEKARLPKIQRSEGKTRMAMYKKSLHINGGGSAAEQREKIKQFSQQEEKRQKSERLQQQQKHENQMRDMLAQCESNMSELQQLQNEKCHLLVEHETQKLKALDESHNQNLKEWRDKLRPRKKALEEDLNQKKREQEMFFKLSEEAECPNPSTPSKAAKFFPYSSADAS
Serine/threonine-protein kinase N2, sequence (Q16513 whole entry): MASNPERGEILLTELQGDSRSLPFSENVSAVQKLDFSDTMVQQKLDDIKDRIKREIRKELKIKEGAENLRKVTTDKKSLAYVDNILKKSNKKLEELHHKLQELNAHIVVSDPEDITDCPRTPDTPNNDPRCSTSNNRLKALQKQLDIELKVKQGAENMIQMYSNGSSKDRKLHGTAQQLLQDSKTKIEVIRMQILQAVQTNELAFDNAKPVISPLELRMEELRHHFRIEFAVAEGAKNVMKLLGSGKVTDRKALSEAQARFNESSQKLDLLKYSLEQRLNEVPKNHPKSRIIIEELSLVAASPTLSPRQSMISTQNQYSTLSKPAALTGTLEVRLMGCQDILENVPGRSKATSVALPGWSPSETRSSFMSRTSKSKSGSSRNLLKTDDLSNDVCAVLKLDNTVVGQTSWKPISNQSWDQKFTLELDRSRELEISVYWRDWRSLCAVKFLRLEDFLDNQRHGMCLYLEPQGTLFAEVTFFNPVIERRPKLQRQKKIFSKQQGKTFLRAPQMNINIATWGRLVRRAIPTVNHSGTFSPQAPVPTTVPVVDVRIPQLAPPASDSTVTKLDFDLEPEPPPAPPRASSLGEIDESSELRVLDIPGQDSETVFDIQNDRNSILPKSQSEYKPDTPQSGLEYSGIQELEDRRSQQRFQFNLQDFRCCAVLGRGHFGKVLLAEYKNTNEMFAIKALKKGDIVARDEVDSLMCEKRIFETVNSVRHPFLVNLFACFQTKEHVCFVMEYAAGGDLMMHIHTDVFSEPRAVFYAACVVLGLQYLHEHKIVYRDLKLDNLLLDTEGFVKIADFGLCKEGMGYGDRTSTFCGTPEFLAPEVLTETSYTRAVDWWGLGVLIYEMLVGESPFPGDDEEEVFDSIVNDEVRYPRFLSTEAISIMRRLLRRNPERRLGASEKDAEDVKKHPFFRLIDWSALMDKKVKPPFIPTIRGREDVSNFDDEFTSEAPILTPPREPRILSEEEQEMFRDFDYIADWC
Tyrosine-protein kinase HCK, sequence (P08631 whole entry): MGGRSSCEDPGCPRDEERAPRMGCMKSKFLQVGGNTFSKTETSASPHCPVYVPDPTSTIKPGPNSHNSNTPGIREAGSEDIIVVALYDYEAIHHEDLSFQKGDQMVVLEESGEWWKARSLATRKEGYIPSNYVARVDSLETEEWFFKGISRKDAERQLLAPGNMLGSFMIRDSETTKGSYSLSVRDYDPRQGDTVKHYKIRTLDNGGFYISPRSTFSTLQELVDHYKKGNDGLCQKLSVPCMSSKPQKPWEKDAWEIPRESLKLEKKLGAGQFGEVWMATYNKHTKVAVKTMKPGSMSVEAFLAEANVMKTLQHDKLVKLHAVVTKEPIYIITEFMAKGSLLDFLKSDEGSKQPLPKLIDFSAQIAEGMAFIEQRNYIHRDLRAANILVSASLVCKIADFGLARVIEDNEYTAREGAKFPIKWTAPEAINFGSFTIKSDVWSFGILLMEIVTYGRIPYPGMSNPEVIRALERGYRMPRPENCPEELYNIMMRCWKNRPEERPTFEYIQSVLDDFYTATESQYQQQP

Question: `CO[C@H]1C[C@@H]2CC[C@@H](C)[C@@](O)(O2)C(=O)C(=O)N2CCCC[C@H]2C(=O)O[C@H]([C@H](C)C[C@@H]2CC[C@@H](OC(=O)C(C)(CO)CO)[C@H](OC)C2)CC(=O)[C@H](C)/C=C(\C)[C@@H](O)[C@@H](OC)C(=O)[C@H](C)C[C@H](C)/C=C/C=C/C=C/1C` [TEMSIROLIMUS] was tested. Which Kd (Ephrin type-B receptor 4) did it give?
Answer: The Kd was > 30 µM (inactive).

Question: And the Kd [1]?
Answer: Its Kd is > 30 µM (inactive).

Question: And the Kd [2]?
Answer: The Kd was > 30 µM (inactive).

Question: What about the Kd [3] of the same compound?
Answer: Its Kd is > 30 µM (inactive).

Question: What about the Kd [4] of the same compound?
Answer: The Kd was > 30 µM (inactive).

Question: What about the Kd [5] of the same compound?
Answer: The Kd was > 30 µM (inactive).

Question: And the Kd [6]?
Answer: The Kd was > 30 µM (inactive).

Question: And the Kd [7]?
Answer: The Kd was > 30 µM (inactive).

Question: What about the Kd [8] of the same compound?
Answer: The Kd was > 30 µM (inactive).

Question: What about the Kd [9] of the same compound?
Answer: Its Kd is > 30 µM (inactive).

Question: Which results are given for `COc1cc2c(Nc3ccc(Cl)c(Cl)c3F)ncnc2cc1OC[C@@H]1C[C@@H]2CN(C)C[C@@H]2C1` [TESEVATINIB]?
Answer: Kd (Ephrin type-B receptor 4): 0.037 µM (active); Kd [1]: > 30 µM (inactive); Kd [2]: 1.16 µM (active); Kd [3]: 0.908 µM (active); Kd [4]: > 30 µM (inactive); Kd [5]: > 30 µM (inactive); Kd [6]: > 30 µM (inactive); Kd [7]: > 30 µM (inactive); Kd [8]: 1.91 µM (active); Kd [9]: > 30 µM (inactive)

Question: Which Kd (Ephrin type-B receptor 4) does the source give for `O=C(Cc1ccc(-c2ccc(OCCN3CCOCC3)cc2)cn1)NCc1ccccc1` [TIRBANIBULIN] here?
Answer: The Kd was > 30 µM (inactive).

Question: What about the Kd [1] of the same compound?
Answer: The Kd was > 30 µM (inactive).

Question: And the Kd [2]?
Answer: Its Kd is > 30 µM (inactive).

Question: What about the Kd [3] of the same compound?
Answer: Its Kd is > 30 µM (inactive).

Question: What about the Kd [4] of the same compound?
Answer: The Kd was > 30 µM (inactive).

Question: And the Kd [5]?
Answer: The Kd was > 30 µM (inactive).

Question: And the Kd [6]?
Answer: Its Kd is > 30 µM (inactive).

Question: What about the Kd [7] of the same compound?
Answer: The Kd was > 30 µM (inactive).

Question: And the Kd [8]?
Answer: The Kd was > 30 µM (inactive).

Question: And the Kd [9]?
Answer: The Kd was > 30 µM (inactive).

Question: How did the Kd (Ephrin type-B receptor 4) turn out when `O=C1NC(=O)[C@@H](c2cn3c4c(cccc24)CCC3)[C@@H]1c1c[nH]c2ccccc12` [TIVANTINIB] was run?
Answer: Its Kd is > 30 µM (inactive).

Question: What about the Kd [1] of the same compound?
Answer: The Kd was > 30 µM (inactive).

Question: And the Kd [2]?
Answer: The Kd was > 30 µM (inactive).

Question: What about the Kd [3] of the same compound?
Answer: Its Kd is > 30 µM (inactive).

Question: And the Kd [4]?
Answer: The Kd was > 30 µM (inactive).

Question: And the Kd [5]?
Answer: Its Kd is > 30 µM (inactive).

Question: And the Kd [6]?
Answer: The Kd was > 30 µM (inactive).

Question: What about the Kd [7] of the same compound?
Answer: Its Kd is > 30 µM (inactive).

Question: And the Kd [8]?
Answer: Its Kd is > 30 µM (inactive).

Question: What about the Kd [9] of the same compound?
Answer: The Kd was > 30 µM (inactive).

Question: What does the source list for `Cc1cc(Nc2ncnc3ccc(NC4=NC(C)(C)CO4)cc23)ccc1Oc1ccn2ncnc2c1` [TUCATINIB]?
Answer: Kd (Ephrin type-B receptor 4): > 30 µM (inactive); Kd [1]: > 30 µM (inactive); Kd [2]: > 30 µM (inactive); Kd [3]: > 30 µM (inactive); Kd [4]: > 30 µM (inactive); Kd [5]: > 30 µM (inactive); Kd [6]: > 30 µM (inactive); Kd [7]: > 30 µM (inactive); Kd [8]: > 30 µM (inactive); Kd [9]: > 30 µM (inactive)

Question: Which results are given for `Cn1ncc(Cl)c1-c1cc(C(=O)N[C@H](CN)Cc2ccc(F)c(F)c2)oc1Cl` [UPROSERTIB]?
Answer: Kd (Ephrin type-B receptor 4): > 30 µM (inactive); Kd [1]: > 30 µM (inactive); Kd [2]: > 30 µM (inactive); Kd [3]: > 30 µM (inactive); Kd [4]: > 30 µM (inactive); Kd [5]: 0.01 µM (active); Kd [6]: > 30 µM (inactive); Kd [7]: > 30 µM (inactive); Kd [8]: > 30 µM (inactive); Kd [9]: > 30 µM (inactive)

Question: What does the source list for `CC(C)c1cc(CNc2nc(Nc3cc(C4CC4)[nH]n3)cc(N3CCN(C)CC3)n2)on1` [XL-228]?
Answer: Kd (Ephrin type-B receptor 4): 0.292 µM (active); Kd [1]: > 30 µM (inactive); Kd [2]: 6.39 µM (active); Kd [3]: 0.551 µM (active); Kd [4]: > 30 µM (inactive); Kd [5]: > 30 µM (inactive); Kd [6]: > 30 µM (inactive); Kd [7]: > 30 µM (inactive); Kd [8]: 0.379 µM (active); Kd [9]: > 30 µM (inactive)

Question: How did the Kd (Ephrin type-B receptor 4) turn out when `C[C@@H](N)c1ccc(C(=O)Nc2ccnc3[nH]ccc23)cc1` [Y-39983] was run?
Answer: Its Kd is > 30 µM (inactive).

Question: What about the Kd [1] of the same compound?
Answer: Its Kd is > 30 µM (inactive).

Question: And the Kd [2]?
Answer: Its Kd is > 30 µM (inactive).

Question: What about the Kd [3] of the same compound?
Answer: The Kd was > 30 µM (inactive).

Question: What about the Kd [4] of the same compound?
Answer: The Kd was 0.028 µM (active).

Question: What about the Kd [5] of the same compound?
Answer: The Kd was 23.2 µM (active).

Question: What about the Kd [6] of the same compound?
Answer: Its Kd is > 30 µM (inactive).

Question: What about the Kd [7] of the same compound?
Answer: The Kd was > 30 µM (inactive).

Question: And the Kd [8]?
Answer: The Kd was > 30 µM (inactive).

Question: And the Kd [9]?
Answer: Its Kd is > 30 µM (inactive).

Question: `CN1C/C=C/CCOc2cccc(c2)-c2ccnc(n2)Nc2cccc(c2)C1` [ZOTIRACICLIB] was tested. Which Kd (Ephrin type-B receptor 4) did it give?
Answer: Its Kd is > 30 µM (inactive).

Question: What about the Kd [1] of the same compound?
Answer: The Kd was > 30 µM (inactive).

Question: And the Kd [2]?
Answer: Its Kd is > 30 µM (inactive).

Question: And the Kd [3]?
Answer: The Kd was 5.09 µM (active).

Question: What about the Kd [4] of the same compound?
Answer: Its Kd is 0.141 µM.

Question: And the Kd [5]?
Answer: Its Kd is > 30 µM (inactive).

Question: And the Kd [6]?
Answer: The Kd was > 30 µM (inactive).

Question: What about the Kd [7] of the same compound?
Answer: The Kd was > 30 µM (inactive).

Question: What about the Kd [8] of the same compound?
Answer: Its Kd is 9.95 µM (active).

Question: What about the Kd [9] of the same compound?
Answer: The Kd was > 30 µM (inactive).
